From the supplement of paper PMC10307832

How the values were obtained:
Test in all cases: relative viability (nuclei count vs DMSO), 5 days (fraction); higher = more cells survive
AZD1208 = compound: N[C@@H]1CCCN(c2c(/C=C3\SC(=O)NC3=O)cccc2-c2ccccc2)C1 [AZD1208]
Outline: (§1)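 Five library-drug doses, separated by factors of √10, were pinned into 1536-well plates holding lung cancer cell lines after an overnight stay at 37 °C. Cells were fixed, permeabilised and Hoechst-stained in one step after 5 days without medium change, then imaged at 4×. Viability compares treated-well with vehicle-well nuclei, counted in MetaXpress, as a median across plates. Passing plates had control CV below 25% and at least one doubling.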

XMD14-99 = compound: CN1CCN(CC1)C2=CC(=C(C=C2)NC3=NC(=C(S3)C(=O)C4=C(C=CC=C4Cl)Cl)N)OC [XMD14-99]
Outline: as §1

AZD1208 + Pemetrexed = compound: N[C@@H]1CCCN(c2c(/C=C3\SC(=O)NC3=O)cccc2-c2ccccc2)C1 [AZD1208] + Nc1nc2[nH]cc(CCc3ccc(C(=O)N[C@@H](CCC(=O)O)C(=O)O)cc3)c2c(=O)[nH]1 [Pemetrexed] (partner 0.2 µM)
Outline: (§2)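 The day after seeding in 1536-well plates, lung cancer cell lines were treated by pin tool with a single drug, or with a fixed anchor-drug dose together with five library-drug doses (not always all listed) in √10 steps. After 5 days, a combined fix-and-stain solution (final 0.05% Triton X-100, 1% formaldehyde, 1 ug/ml Hoechst) was added. Nuclei counted on 4× images gave relative viability as treated counts over vehicle counts, reported as the median of duplicate plates.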

XMD14-99 + OSI-027 = compound: CN1CCN(CC1)C2=CC(=C(C=C2)NC3=NC(=C(S3)C(=O)C4=C(C=CC=C4Cl)Cl)N)OC [XMD14-99] + COc1cccc2cc(-c3nc([C@H]4CC[C@H](C(=O)O)CC4)n4ncnc(N)c34)[nH]c12 [OSI-027] (partner 0.5 µM)
Outline: as §2

Row | Cell Line | relative viability (AZD1208; 0.08 µM) | relative viability (AZD1208; 0.253 µM) | relative viability (AZD1208; 0.8 µM) | relative viability (AZD1208; 2.53 µM) | relative viability (AZD1208; 8 µM) | relative viability (XMD14-99; 0.08 µM) | relative viability (XMD14-99; 0.8 µM) | relative viability (XMD14-99; 2.53 µM) | relative viability (XMD14-99; 8 µM) | relative viability (AZD1208 + Pemetrexed; first compound 0.08 µM) | relative viability (AZD1208 + Pemetrexed; first compound 0.253 µM) | relative viability (AZD1208 + Pemetrexed; first compound 0.8 µM) | relative viability (AZD1208 + Pemetrexed; first compound 2.53 µM) | relative viability (AZD1208 + Pemetrexed; first compound 8 µM) | relative viability (XMD14-99 + OSI-027; first compound 0.08 µM) | relative viability (XMD14-99 + OSI-027; first compound 0.8 µM) | relative viability (XMD14-99 + OSI-027; first compound 2.53 µM) | relative viability (XMD14-99 + OSI-027; first compound 8 µM)
1 | HCC-366 | 1 | 0.996 | 1.03 | 1.01 | 0.993 | 0.988 | 0.996 | 1.01 | 0.894 | 0.182 | 0.206 | 0.194 | 0.581 | 0.223 | 0.855 | 1.05 | 0.82 | 0.608
2 | HCC-827 | 1.08 | 1.08 | 1.05 | 1.08 | 1.01 | 1.06 | 0.972 | 0.961 | 0.881 | 0.278 | 0.26 | 0.308 | 0.269 | 0.265 | 0.726 | 0.68 | 0.655 | 0.608
3 | HOP-62 | 1.09 | 1.07 | 0.941 | 1.02 | 0.944 | 1.01 | 1 | 0.993 | 0.868 | 0.298 | 0.345 | 0.28 | 0.289 | 0.269 | 0.873 | 0.877 | 0.772 | 0.662
4 | IA-LM | 0.951 | 0.983 | 0.855 | 0.875 | 0.989 | 0.947 | 0.86 | 0.758 | 0.472 |  |  |  |  |  |  |  |  | 
5 | LC-2-ad | 1.02 | 1.03 | 0.927 | 0.887 | 0.899 | 0.973 | 0.963 | 0.929 | 0.775 | 0.246 | 0.278 | 0.269 | 0.246 | 0.272 | 0.845 | 0.866 | 0.771 | 0.679
6 | LCLC-97TM1 | 0.95 | 0.885 | 0.813 | 0.852 | 0.631 | 0.982 | 1 | 0.828 | 0.571 | 0.188 | 0.176 | 0.125 | 0.175 | 0.171 | 0.412 | 0.452 | 0.555 | 0.442
7 | LCLC-103H | 1.02 | 1.04 | 0.938 | 0.773 | 0.777 | 0.953 | 1.02 | 0.963 | 0.907 | 0.453 | 0.46 | 0.51 | 0.43 | 0.477 | 0.409 | 0.417 | 0.465 | 0.406
8 | LK-2 | 0.882 | 0.718 | 0.63 | 0.493 | 0.42 | 0.914 | 1.04 | 1.09 | 0.913 | 0.344 | 0.25 |  | 0.219 | 0.163 | 0.19 | 0.182 | 0.162 | 0.179
9 | LOU-NH91 | 1.02 | 0.889 | 0.954 | 0.953 | 0.892 | 1.06 | 0.922 | 0.898 | 0.829 | 0.357 | 0.409 | 0.421 | 0.357 | 0.434 | 0.744 | 0.7 | 0.73 | 0.63
10 | LU99A | 0.974 | 0.963 | 0.921 | 0.878 | 0.807 | 0.982 | 1.03 | 0.896 | 0.8 | 0.198 | 0.237 | 0.233 | 0.198 | 0.205 | 0.302 | 0.308 | 0.297 | 0.25
11 | LXF-289 | 1.05 | 1.06 | 1.01 | 1.03 | 1.12 | 1.02 | 0.964 | 0.976 | 0.889 | 0.887 | 1.01 | 0.924 | 0.634 | 1.02 | 0.839 | 0.84 | 0.819 | 0.616
12 | NCI-H23 | 0.968 | 1.08 | 0.902 | 0.886 | 0.842 | 1.01 | 0.996 | 0.911 | 0.685 | 0.604 | 0.698 | 0.632 | 0.704 | 0.703 | 0.699 | 0.616 | 0.615 | 0.496
13 | NCI-H322M | 0.94 | 0.943 | 0.943 | 0.891 | 1.04 | 0.994 | 0.977 | 0.86 | 0.762 | 0.565 | 0.654 |  | 0.622 | 0.608 | 0.56 | 0.581 | 0.492 | 0.372
14 | NCI-H358 | 0.904 | 0.78 | 0.798 | 0.862 | 0.729 | 0.959 | 0.895 | 0.851 | 0.57 | 0.153 | 0.181 | 0.167 | 0.173 | 0.145 | 0.702 | 0.813 | 0.707 | 0.404
15 | NCI-H441 | 0.937 | 1.14 | 0.896 | 0.989 | 0.736 | 0.912 | 0.968 | 0.847 | 0.645 | 0.234 | 0.263 | 0.237 | 0.263 | 0.256 | 0.61 | 0.568 | 0.665 | 0.427
16 | NCI-H460 | 0.997 | 1.1 | 0.962 | 0.998 | 1.03 | 1.02 | 0.965 | 0.954 | 0.841 | 0.065 | 0.0614 | 0.0662 | 0.0615 | 0.055 | 0.626 | 0.626 | 0.646 | 0.269
17 | NCI-H727 | 0.891 | 0.886 | 0.777 | 0.755 | 0.827 | 1.03 | 0.815 | 0.846 | 0.567 |  |  |  |  |  | 0.617 | 0.493 | 0.584 | 0.383
18 | NCI-H1299 | 1.01 | 1.06 | 1.03 | 1.06 | 1.06 | 0.996 | 0.98 | 0.941 | 0.859 |  |  |  |  |  |  |  |  | 
19 | NCI-H1623 | 0.984 | 0.912 | 0.764 | 0.871 | 0.746 | 0.959 | 0.99 | 1.01 | 0.804 |  |  |  |  |  | 0.434 | 0.43 | 0.392 | 0.396
20 | NCI-H1703 | 0.846 | 0.881 | 0.846 | 0.718 | 0.654 | 0.89 | 0.912 | 0.91 | 0.761 |  |  |  |  |  |  |  |  | 
